For the first assay, the system named is MCF-7 (human). Nature of the assay: cells. Conditions: MCF-7, 72 h.
For the molecule `COc1cc2ncnc(Nc3ccc(F)c(Cl)c3)c2cc1OCCCSc1nc2ccccc2o1`, inhibition was half-maximal at 37 µM (IC50).
On to `COc1cc2ncnc(Nc3cccc(C(F)(F)F)c3)c2cc1OCCCSc1nc2ccccc2o1`, for which it took 37.3 µM to reach half-maximal inhibition (IC50).
Still for that read-out and setting: as for `CCCCc1nc(Cl)c(C=O)n1CCCOc1cc2c(Nc3cccc(I)c3)ncnc2cc1OC`, the figure is 32.6 µM; as for `CCCCc1nc(Cl)c(C=O)n1CCCOc1cc2c(Nc3cccc(C(F)(F)F)c3)ncnc2cc1OC`, 38.8 µM; as for `COc1cc2ncnc(Nc3cccc(C(F)(F)F)c3)c2cc1OCCCSc1nc2ccccc2s1`, 35.9 µM.

Another assay concerns A431 (human). Briefly: cells. To be noted: A431, 72 h.
As to `C#Cc1cccc(Nc2ncnc3cc(OC)c(OCCCn4c(CCCC)nc(Cl)c4C=O)cc23)c1`, the IC50 (as a rule, the concentration that gives 50% inhibition) is 10.1 µM.
The molecule `COc1ccc(Nc2ncnc3cc(OC)c(OCCCSc4nc5ccccc5s4)cc23)cc1` returned an IC50 of 14.2 µM.
On the same count and under the same terms, the value for `CCc1cc(Br)ccc1Nc1ncnc2cc(OC)c(OCCCSc3nc4ccccc4o3)cc12` was 17.2 µM; that for `COc1cc2ncnc(Nc3ccc(F)c(Cl)c3)c2cc1OCCCSc1nc2ccccc2o1` was 4.05 µM.
On to `COc1cc2ncnc(Nc3cccc(C(F)(F)F)c3)c2cc1OCCCSc1nc2ccccc2o1`, for which the midpoint of inhibition, the IC50, lay at 4.03 µM.
Same read-out and setting: the value for `COc1cc2ncnc(Nc3ccc(OC(F)(F)F)cc3)c2cc1OCCCSc1nc2ccccc2o1` was 9.08 µM; that for `CCCCc1nc(Cl)c(C=O)n1CCCOc1cc2c(Nc3ccc(Br)cc3CC)ncnc2cc1OC` was 6.56 µM; that for `CCCCc1nc(Cl)c(C=O)n1CCCOc1cc2c(Nc3cccc(I)c3)ncnc2cc1OC` was 3 µM.
`C#Cc1cccc(Nc2ncnc3cc(OC)c(OCCCn4c(CCCC)nc(Cl)c4CO)cc23)c1`: the IC50 worked out at 10 µM.
On the same count and under the same terms, the value for `CCc1cc(Br)ccc1Nc1ncnc2cc(OC)c(OCCCSc3nc4ccccc4s3)cc12` was 5.87 µM; that for `CCCCc1nc(Cl)c(C=O)n1CCCOc1cc2c(Nc3cccc(Br)c3)ncnc2cc1OC` was 6.44 µM.
In the case of `CCCCc1nc(Cl)c(C=O)n1CCCOc1cc2c(Nc3cccc(F)c3)ncnc2cc1OC`, the IC50 is 12 µM.
Consider `COc1ccc(Nc2ncnc3cc(OC)c(OCCCSc4nc5ccccc5o4)cc23)cc1`, for which the IC50 worked out at 13.1 µM.
The same measure, in the same setting: the value for `CCCCc1nc(Cl)c(CO)n1CCCOc1cc2c(Nc3cccc(I)c3)ncnc2cc1OC` was 9.95 µM.
Still for that read-out and setting: the value for `CCCCc1nc(Cl)c(CO)n1CCCOc1cc2c(Nc3cccc(Br)c3)ncnc2cc1OC` was 8.2 µM.
For the molecule `COc1cc2ncnc(Nc3ccc(F)c(Cl)c3)c2cc1OCCCSc1nc2ccccc2s1`, the IC50 was 5.37 µM.
The same measure, in the same setting: as for `CCCCc1nc(Cl)c(CO)n1CCCOc1cc2c(Nc3ccc(OC)cc3)ncnc2cc1OC`, the figure is 20 µM.
`COc1cc2ncnc(Nc3ccc(C)cc3)c2cc1OCCCSc1nc2ccccc2o1` came in with an IC50 of 12.1 µM.
Still for that read-out and setting: as for `CCCCc1nc(Cl)c(CO)n1CCCOc1cc2c(Nc3cccc(F)c3)ncnc2cc1OC`, the figure is 17.7 µM.
On the same count and under the same terms, as for `CCCCc1nc(Cl)c(C=O)n1CCCOc1cc2c(Nc3cccc(C(F)(F)F)c3)ncnc2cc1OC`, the figure is 3.51 µM; as for `COc1cc2ncnc(Nc3cccc(C(F)(F)F)c3)c2cc1OCCCSc1nc2ccccc2s1`, 4.05 µM; as for `CCCCc1nc(Cl)c(C=O)n1CCCOc1cc2c(Nc3ccc(OC)cc3)ncnc2cc1OC`, 14 µM.
Same read-out and setting: the value for `CCCCc1nc(Cl)c(C=O)n1CCCOc1cc2c(Nc3ccc(F)c(Cl)c3)ncnc2cc1OC` was 5.02 µM.
Take `CCCCc1nc(Cl)c(CO)n1CCCOc1cc2c(Nc3cccc(C(F)(F)F)c3)ncnc2cc1OC`: the IC50 stood at 8.28 µM.
Same read-out and setting: as for `CCCCc1nc(Cl)c(CO)n1CCCOc1cc2c(Nc3ccc(F)c(Cl)c3)ncnc2cc1OC`, the figure is 5.99 µM.
On the same count and under the same terms, as for `COc1cc2ncnc(Nc3ccc(C)cc3)c2cc1OCCCSc1nc2ccccc2s1`, the figure is 14.2 µM; as for `CCCCc1nc(Cl)c(CO)n1CCCOc1cc2c(Nc3ccc(Br)cc3CC)ncnc2cc1OC`, 10.6 µM.
